Experimental findings from patent publication US12109266B2, “Modulating gabarap to modulate immunogenic cell death” (Dana-Farber Cancer Institute, Inc., priority 2020, dated 2024) are described below.

The structures appear in SMILES notation.

Experiment [1] relates to AMO1 and NCI-H929 MM cells. The experiment can be described thus: Micronuclei assay (flow cytometry). Format: cell-based, human. As to conditions: AMO1 (0-7.5 nM) and NCI-H929 (0-5 nM), 16 h. As for the experimental part: Cells were analyzed for micronuclei formation using a flow cytometry-based Micronucleus Assay (MicroFlow kit), according to manufacturer's protocol. Briefly, nonviable cells were removed by Ficoll gradient centrifugation. Viable cells were then stained with photoactivated Nucleic Acid Dye A (ethidium monoazide) that crosses the compromised outer membrane of apoptotic and necrotic cells and stains them red. Cells were then washed twice and lysed with a detergent containing buffer to break open cytoplasmic membranes and release nuclei and micronuclei. Nucleic Acid Dye B (SYTOX green) is then added to label DNA from both nuclei and micronuclei. Flow cytometry analysis was used to distinguish DNA from dead (dual stained with Dye A and B) and live (single stained with Dye B) cells.

Experiment [2] has as its system IFN response in 5TGM1 cells. The experiment can be described thus: Type-I IFN response in MM cells (qRT-PCR). In kind it is cell-based, murine. As to conditions: 5TGM1 Sting^KO; BTZ 7.5 nM. Here is the method: Total RNA from multiple myeloma cells was prepared with TRIzol™ (ThermoFisher Scientific) and RNA Clean and Concentrator™-5 kit (Zymo Research) following the product instructions. RNA integrity and quantity was assessed by NanoDrop Spectrophotometer (ThermoFisher Scientific). For analysis of mRNA expression, oligo-dT-primed cDNA was obtained using the High Capacity cDNA Reverse Transcription Kit (ThermoFisher Scientific), and used as template to quantify: human and murine IFNA1 (Hs03044218_g1, Mm03030145_gH), human and murine IFNB1 (Hs01077958_s1, Mm00439552_s1), human and murine CXCL9 (Hs00171065_ml, Mm00434946_ml), and human and murine GAPDH (Hs02786624_g1, Mm99999915_g1). Analysis was determined by RT-PCR using TaqMan®Fast Universal PCR Master Mix on a 7500 Fast Real-Time PCR System (ThermoFisher Scientific). Comparative RT-PCR was performed in triplicate. Relative expression was calculated using the comparative […] (Ct) method.

Turning to `CC(C)C[C@H](NC(=O)[C@H](Cc1ccccc1)NC(=O)c1cnccn1)B(O)O` [BTZ, bortezomib], the “micronuclei (DNA content in the cytoplasm)” value in experiment [1] is “dose-dependent increase of DNA content in the cytoplasm”. Further, in experiment [2], the “IFN response (Ifna1, Ifnb1 qRT-PCR)” value is given as “abrogation of IFN response after BTZ treatment”.
